Test results reported in patent US8853227B2, “Methotrexate adjuvants to reduce toxicity and methods for using the same” (Tosk, Incorporated, priority 2008, dated 2014).
“Also recorded” adds a separate entry of the source.

Assays:
Drosophila melanogaster = experiment: Fly Study I (protection from MTX-induced lethality); assay type: in vivo; conditions: for Flies Alive (Number): Fly Study I method, test compound + MTX (MTX Alone: no adjuvant), Table 3
Protocol: In this study, Drosophila melanogaster eggs (50 eggs per vial) were treated with either 0.005 mg TK-112690+0.4 mg MTX (Group 1), 0.01 mg TK-112690+0.4 mg MTX (Group 2), 0.04 mg TK-112690+0.4 mg MTX (Group 3), 0.1 mg TK-112690+0.4 mg MTX (Group 4), 0.4 mg MTX alone (Group 5) or saline blank (Group 6). Two vials of eggs for each dose group were evaluated for viability (viable flies plus pupae).
The efficacy of cancer chemotherapy can be improved if agents are available to reduce the adverse events associated with treatment with cytotoxic agents. To this end, Drosophila melanogaster (commonly know as the fruit fly) is an ideal organism to screen chemical compounds for such side-effect-reducing agents. This study is aimed at finding a dose of a 2,2′-anhydropyrimidine test article that protects against MTX-induced lethality in insects.
Increasing amounts of a 2,2′-anhydropyrimidine test article (typically 0.03 to 0.1 mg) are mixed in an aqueous solution with 0.3 (or 0.4) mg MTX. Four milliliters (mL) of a 2,2′-anhydropyrimidine test article+MTX solutions are added to an appropriate amount of instant fly medium. Fruit fly eggs are added to a 2,2′-anhydropyrimidine test article+MTX treated medium and incubated for up to 31 days. After the 31 day incubation, each assay is scored by the number of mature fly and pupae per vial.
The assays are set up in clear sterile polystyrene narrow diameter vials from Applied Scientific (Hampton, N.H.). Vials are stored in trays and incubated in a darkened 25° C. incubator.
Reagents and materials used are: 50 mg/mL MTX in H2O (pH 8), 20 mg/mL of the 2,2′-anhydropyrimidine test article in H2O, water, sterile polystyrene narrow diameter vials from Applied Scientific, Instant Drosophila Food Medium, Oregon-R Drosophila melanogaster, 25° C. incubator, and 15 mL polystyrene conical tubes
Each assay is performed in a separate fly vial. Increasing amounts of a 2,2′-anhydropyrimidine (0.005 to 1.0 mg) are tested for MTX side-effect-reduction on fly eggs. Amounts of the 2,2′-anhydropyrimidine test article are drawn from a 20 mg/mL stock solution dissolved in water. Nine mL of the 2,2′-anhydropyrimidine+0.3 (or 0.4) mg MTX solutions are pre-mixed with water in a 15 mL conical tube. Duplicate assays receive 4 mL of the 2,2′-anhydropyrimidine test article+0.3 (or 0.4) mg MTX solutions. Pre-measured amounts of instant drosophila medium are added to each assay to achieve optimal hydration level. Controls are (1) 4 mL water alone and (2) 0.3 (or 0.4) mg MTX alone. Precisely 50 fly eggs aged for ˜18 hours are added to each assay. Assays are capped with a fitted plug and incubated for 30 days in a darkened 25° C. incubator. Assays are scored by the number of dead pupae or adult flies per vial.

AS283 cells = experiment: Cell Culture Study II (MTX cytotoxicity, CellTiter-Glo); assay type: cell-based, human; conditions: 72 hours
Protocol: In this study, AS283 cells were grown in RPMI-1640 supplemented with L-glutamine dipeptide, sodium pyruvate, HEPES, and 10% FBS. AS283 cells were used to seed three 96-well plates with 10,000 cells/well in a total volume of 50 μL. Medium alone wells were seeded 100 μL medium. Plates were incubated overnight. The following day, 25 μL of the TK-112690 and MTX stock solutions were added to the appropriate wells. TK-112690 was added first, followed by MTX in all wells. 25 μL of vehicle was added to TK-112690 alone wells. 25 μL of vehicle and 25 μL medium were added to vehicle control wells, and 50 μL medium was added to cell control wells. Cell viability was measured using CellTiter-Glo and DOX (10 μM) was used as a reference standard. The plates were incubated at 37° C., 5% CO2 for 72 hours then removed from the incubator and placed on the bench at room temperature for 30 min. The plates were not stacked or shaken. […] Luminescence was recorded on TriLux. […]
AS283 cells were grown in RPMI-1640 supplemented with L-glutamine dipeptide, sodium pyruvate, HEPES, and 10% FBS. […] Cell viability was measured using CellTiter-Glo and DOX (10 μM) was used as a reference standard.
The plates were incubated at 37° C., 5% CO2 for 72 hours then removed from the incubator and placed on the bench at room temperature for 30 min. […] Luminescence was recorded on TriLux.

| Compound | protection from MTX lethality in flies (viable flies plus pupae) (Drosophila melanogaster; 0.005 to 0.1 mg TK-112690 + 0.4 mg MTX, p<0.01 vs MTX alone or saline) | Flies Alive (Number) (Drosophila melanogaster) | effect of TK-112690 on MTX cytotoxicity (cell viability) (AS283 cells; TK-112690 1, 10, 100 μM + MTX 0.01-100 μM) | effect of MTX on lethality in the flies (Drosophila melanogaster; 0.4 mg MTX alone vs saline, p<0.01) | cytotoxicity to AS283 cancer cells (AS283 cells; MTX 0.01-100 μM) |
| --- | --- | --- | --- | --- | --- |
| Cc1cn2c(nc1=O)O[C@H]1[C@H](O)[C@@H](CO)O[C@H]12 [TK-112690, 2,2′-anhydro-5-methyluridine] | highly significant | 8 | did not diminish the cytotoxicity of MTX; also recorded: no statistical difference | – | – |
| CN(Cc1cnc2nc(N)nc(N)c2n1)c1ccc(C(=O)N[C@@H](CCC(=O)O)C(=O)O)cc1 [MTX, N-[4-[[(2,4-diamino-6-pteridinyl)methyl]methylamino]benzoyl]-L-glutamic acid, reference compound] | – | 0 | – | highly significant | cytotoxic |
